Laboratory results published in patent US20230172882A1, “Method For Treating Pancreatic Cancer” (Lantern Pharma Inc., priority 2020, published 2023).
pIC50: −log10 of the molar value.

Assays:
[1] = system: pancreatic cancer cell lines; experiment: Cell viability, first study of 4 pancreatic cancer cell lines, 72 h; assay type: cell-based
Protocol: (§1) Individual cell lines were treated with LP-184 for 72 hours and cell viability was assayed. IC50 values were generated from dose response curves plotted in GraphPad Prism.

[2] = system: pancreatic cancer cell lines; experiment: Cell viability, second study of pancreatic cancer cell lines, 72 h; assay type: cell-based; conditions: treated 72 hours, range across cell lines (FIG. 2), read-out: cytotoxicity in terms of IC50 value
Protocol: as §1

[3] = system: Capan-1 cell line derived xenograft tumors; experiment: Capan-1 cell line derived xenograft tumors in SCID mice; assay type: in vivo; conditions: 3 mg/kg intraperitoneal, thrice weekly for 3 weeks; end of study period, 60 days
Protocol: All animal studies were carried out in compliance with National Institutes of Health Guidelines for animals. The doses were selected to be tolerated in xenografts. Capan-1 cell line derived xenograft tumors were implanted in SCID mice and treated either with (a) vehicle control of 95% saline/5% ethanol (N=3) or (b) 3 mg/kg LP-184 (N=5) administered by intraperitoneal injection over thrice weekly doses for 3 weeks. In other words, one group was treated with LP-184 and the other group was treated with the vehicle control.

HydroxyUreaMethyl Acylfulvene [LP-184] was tested, and the “potency in pancreatic cancer cell lines” value ([1]; FIG. 1 and FIG. 2, 72 hours) was “nanomolar potency”, the pIC50 ([1]; first study of 4 pancreatic cancer cell lines, treated 72 hours, range across cell lines (FIG. 1), read-out: cytotoxicity in terms of IC50 values) was 6.51 to 6.96 and the pIC50 [2] was 6.74 to 6.89. For the same substance, the “tumor volume growth / tumor regression” value [3] was “Complete tumor regression”.
